Test results from patent US11629129B2, “Microbiocidal picolinamide derivatives” (SYNGENTA PARTICIPATIONS AG, priority 2018, dated 2023).

Key:
[1] = test system: Glomerella lagenarium (Colletotrichum lagenarium); assay: Glomerella lagenarium (Colletotrichum lagenarium)/Liquid Culture (Anthracnose); type: cell-based; conditions: Colletotrichum orbiculare; 200 ppm in the formulation; liquid culture, growth inhibition photometrically 3 to 4 days after application; compared to untreated control; read-out: disease control
Experimental: Glomerella lagenarium (Colletotrichum lagenarium)/Liquid Culture (Anthracnose) Conidia of the fungus from cryogenic storage are directly mixed into nutrient broth (PDB potato dextrose broth). After placing a (DMSO) solution of test compound into a microtiter plate (96-well format), the nutrient broth containing the fungal spores is added. The test plates are incubated at 24° C. and the inhibition of growth is measured photometrically 3 to 4 days after application.

[2] = test system: Phaeosphaeria nodorum (Septoria nodorum); assay: Phaeosphaeria nodorum (Septoria nodorum)/Wheat/Leaf Disc Preventative (Glume Blotch); type: in vivo; conditions: Parastagonospora nodorum, foliar; 200 ppm in the formulation; wheat leaf segments cv. Kanzler, inoculated 2 days after application, assessed 5-7 days after application; compared to untreated; read-out: disease control
Experimental: Phaeosphaeria nodorum (Septoria nodorum)/Wheat/Leaf Disc Preventative (Glume Blotch) Wheat leaf segments cv. Kanzler are placed on agar in a multiwell plate (24-well format) and sprayed with the formulated test compound diluted in water. The leaf disks are inoculated with a spore suspension of the fungus 2 days after application. The inoculated test leaf disks are incubated at 20° C. and 75% rh under a light regime of 12 h light/12 h darkness in a climate cabinet and the activity of a compound is assessed as percent disease control compared to untreated when an appropriate level of disease damage appears in untreated check leaf disks (5-7 days after application).

[3] = test system: Mycosphaerella graminicola (Septoria tritici); assay: Mycosphaerella graminicola (Septoria tritici)/Liquid Culture (Septoria Blotch); type: cell-based; conditions: Zymoseptoria tritici; 200 ppm in the formulation; liquid culture, growth inhibition photometrically 4 to 5 days after application; compared to untreated control; read-out: disease control
Experimental: Mycosphaerella graminicola (Septoria tritici)/Liquid Culture (Septoria Blotch) Conidia of the fungus from cryogenic storage are directly mixed into nutrient broth (PDB potato dextrose broth). After placing a (DMSO) solution of test compound into a microtiter plate (96-well format), the nutrient broth containing the fungal spores is added. The test plates are incubated at 24° C. and the inhibition of growth is determined photometrically 4 to 5 days after application.

[4] = test system: Mycosphaerella arachidis (Cercospora arachidicola); assay: Mycosphaerella arachidis (Cercospora arachidicola)/Liquid Culture (Early Leaf Spot); type: cell-based; conditions: 200 ppm in the formulation, liquid culture, growth inhibition photometrically 4-5 days after application, compared to untreated control, read-out: disease control
Experimental: Mycosphaerella arachidis (Cercospora arachidicola)/Liquid Culture (Early Leaf Spot) Conidia of the fungus from cryogenic storage are directly mixed into nutrient broth (PDB potato dextrose broth). After placing a (DMSO) solution of test compound into a microtiter plate (96-well format), the nutrient broth containing the fungal spores is added. The test plates are incubated at 24° C. and the inhibition of growth is determined photometrically 4-5 days after application.

[5] = test system: Puccinia recondita f. sp. tritici; assay: Puccinia recondita f. sp. tritici/Wheat/Leaf Disc Preventative (Brown Rust); type: in vivo; conditions: foliar, 200 ppm in the formulation, wheat leaf segments cv. Kanzler, inoculated 1 day after application, assessed 7-9 days after application, compared to untreated, read-out: disease control
Experimental: Puccinia recondita f. sp. tritici/Wheat/Leaf Disc Preventative (Brown Rust) Wheat leaf segments cv. Kanzler are placed on agar in multiwell plates (24-well format) and sprayed with the formulated test compound diluted in water. The leaf disks are inoculated with a spore suspension of the fungus 1 day after application. The inoculated leaf segments are incubated at 19° C. and 75% rh under a light regime of 12 h light/12 h darkness in a climate cabinet and the activity of a compound is assessed as percent disease control compared to untreated when an appropriate level of disease damage appears in untreated check leaf segments (7-9 days after application).

[6] = test system: Monographella nivalis (Microdochium nivale); assay: Monographella nivalis (Microdochium nivale)/Liquid Culture (Foot Rot Cereals); type: cell-based; conditions: 200 ppm in the formulation, liquid culture, growth inhibition photometrically 4-5 days after application, compared to untreated control, read-out: disease control
Experimental: Monographella nivalis (Microdochium nivale)/Liquid Culture (Foot Rot Cereals) Conidia of the fungus from cryogenic storage are directly mixed into nutrient broth (PDB potato dextrose broth). After placing a (DMSO) solution of test compound into a microtiter plate (96-well format), the nutrient broth containing the fungal spores is added. The test plates are incubated at 24° C. and the inhibition of growth is determined photometrically 4-5 days after application.

[7] = test system: Botryotinia fuckeliana (Botrvtis cinerea); assay: Botryotinia fuckeliana (Botrvtis cinerea)/Liquid Culture (Gray Mould); type: cell-based; conditions: Botrytis cinerea; 200 ppm in the formulation; liquid culture, growth inhibition photometrically 3-4 days after application; compared to untreated control; read-out: disease control
Experimental: Botryotinia fuckeliana (Botrvtis cinerea)/Liquid Culture (Gray Mould) Conidia of the fungus from cryogenic storage are directly mixed into nutrient broth (Vogels broth). After placing a (DMSO) solution of test compound into a microtiter plate (96-well format), the nutrient broth containing the fungal spores is added. The test plates are incubated at 24° C. and the inhibition of growth is determined photometrically 3-4 days after application.

COc1ccnc(C(=O)N[C@@H](C)C(=O)O[C@@H](C)c2ccc(Oc3ccc(Cl)cc3Cl)cc2)c1O [I.aw.001, [(1S)-1-[4-(2,4-dichlorophenoxy)phenyl]ethyl] (2S)-2-[(3-hydroxy-4-methoxy-pyridine-2-carbonyl)amino] propanoate]
≥ 80%: inhibition of growth at 200 ppm [1] | pest or weed control at 200 ppm [2] | inhibition of growth at 200 ppm [3] | inhibition of growth at 200 ppm [4] | pest or weed control at 200 ppm [5]

COc1ccnc(C(=O)N[C@@H](C)C(=O)O[C@@H](C)c2ccc(Oc3cccc(C(F)(F)F)c3)cc2)c1O [I.ax.001, [(1S)-1-[4-[3-(trifluoromethyl)phenoxy]phenyl]ethyl] (2S)-2-[(3-hydroxy-4-methoxy-pyridine-2-carbonyl)amino] propanoate]
≥ 80%: inhibition of growth at 200 ppm [1] | pest or weed control at 200 ppm [2] | inhibition of growth at 200 ppm [3] | inhibition of growth at 200 ppm [4] | pest or weed control at 200 ppm [5]

COc1ccnc(C(=O)N[C@@H](C)C(=O)O[C@@H](C)c2ccc(Oc3ccc(C(F)(F)F)cc3)cc2)c1O [I.ay.001, [(1S)-1-[4-[4-(trifluoromethyl)phenoxy]phenyl]ethyl] (2S)-2-[(3-hydroxy-4-methoxy-pyridine-2-carbonyl)amino] propanoate]
≥ 80%: inhibition of growth at 200 ppm [1] | pest or weed control at 200 ppm [2] | inhibition of growth at 200 ppm [3] | inhibition of growth at 200 ppm [4] | pest or weed control at 200 ppm [5] | inhibition of growth at 200 ppm [6]

COc1ccnc(C(=O)N[C@@H](C)C(=O)O[C@@H](C)c2ccc(Oc3ccc(C(F)(F)F)cc3Cl)cc2)c1O [I.az.001, [(1S)-1-[4-[2-chloro-4-(trifluoromethyl)phenoxy]phenyl]ethyl] (2S)-2-[(3-hydroxy-4-methoxy-pyridine-2-carbonyl)amino] propanoate]
≥ 80%: inhibition of growth at 200 ppm [1] | pest or weed control at 200 ppm [2] | inhibition of growth at 200 ppm [3] | inhibition of growth at 200 ppm [4]

COc1cc(-c2ccc([C@H](C)OC(=O)[C@H](C)NC(=O)c3nccc(OC)c3O)cc2)ccn1 [I.ba.001, [(1S)-1-[4-(2-methoxy-4-pyridyl)phenyl]ethyl] (2S)-2-[(3-hydroxy-4-methoxy-pyridine-2-carbonyl)amino] propanoate]
≥ 80%: inhibition of growth at 200 ppm [1] | pest or weed control at 200 ppm [2] | inhibition of growth at 200 ppm [3] | inhibition of growth at 200 ppm [4] | pest or weed control at 200 ppm [5] | inhibition of growth at 200 ppm [6]

COc1ccnc(C(=O)N[C@@H](C)C(=O)O[C@@H](C)c2ccc(-c3ccccc3)cc2)c1O [I.d.001, [(1S)-1-(4-phenylphenyl)ethyl] (2S)-2-[(3-hydroxy-4-methoxy-pyridine-2-carbonyl)amino] propanoate]
≥ 80%: inhibition of growth at 200 ppm [7] | inhibition of growth at 200 ppm [1] | inhibition of growth at 200 ppm [3] | inhibition of growth at 200 ppm [4] | pest or weed control at 200 ppm [5] | inhibition of growth at 200 ppm [6]

COc1ccnc(C(=O)N[C@@H](C)C(=O)O[C@@H](C)c2ccc(-c3ccccc3)cc2)c1OC(C)=O [I.d.019, [(1S)-1-(4-phenylphenyl)ethyl] (2S)-2-[(3-acetoxy-4-methoxy-pyridine-2-carbonyl)amino] propanoate]
≥ 80%: pest or weed control at 200 ppm [2] | inhibition of growth at 200 ppm [3] | pest or weed control at 200 ppm [5]

COc1ccnc(C(=O)N[C@@H](C)C(=O)O[C@@H](C)c2ccc(-c3ccccc3)c(F)c2)c1O [I.e.001, [(1S)-1-(3-fluoro-4-phenyl-phenyl)ethyl] (2S)-2-[(3-hydroxy-4-methoxy-pyridine-2-carbonyl)amino] propanoate]
≥ 80%: inhibition of growth at 200 ppm [7] | inhibition of growth at 200 ppm [1] | inhibition of growth at 200 ppm [3] | inhibition of growth at 200 ppm [4] | pest or weed control at 200 ppm [5] | inhibition of growth at 200 ppm [6]

CCc1ccccc1-c1ccc([C@H](C)OC(=O)[C@H](C)NC(=O)c2nccc(OC)c2O)cc1 [I.i.001, [(1S)-1-[4-(2-ethylphenyl)phenyl]ethyl] (2S)-2-[(3-hydroxy-4-methoxy-pyridine-2-carbonyl)amino] propanoate]
≥ 80%: inhibition of growth at 200 ppm [1] | pest or weed control at 200 ppm [2] | inhibition of growth at 200 ppm [3] | inhibition of growth at 200 ppm [4] | pest or weed control at 200 ppm [5]

COc1ccnc(C(=O)N[C@@H](C)C(=O)O[C@@H](C)c2ccc(-c3cccc(Cl)c3)cc2)c1O [I.r.001, [(1SS)-1-[4-(3-chlorophenyl)phenyl]ethyl] (2S)-2-[(3-hydroxy-4-methoxy-pyridine-2-carbonyl)amino] propanoate]
≥ 80%: inhibition of growth at 200 ppm [7] | inhibition of growth at 200 ppm [1] | inhibition of growth at 200 ppm [3] | inhibition of growth at 200 ppm [4] | pest or weed control at 200 ppm [5] | inhibition of growth at 200 ppm [6]

COc1ccnc(C(=O)N[C@@H](C)C(=O)O[C@@H](C)c2ccc(-c3ccc(Cl)cc3)cc2)c1O [I.u.001, [(1S)-1-[4-(4-chlorophenyl)phenyl]ethyl] (2S)-2-[(3-hydroxy-4-methoxy-pyridine-2-carbonyl)amino] propanoate]
≥ 80%: inhibition of growth at 200 ppm [7] | inhibition of growth at 200 ppm [1] | inhibition of growth at 200 ppm [3] | inhibition of growth at 200 ppm [4] | pest or weed control at 200 ppm [5] | inhibition of growth at 200 ppm [6]

COc1ccnc(C(=O)N[C@@H](C)C(=O)O[C@@H](C)c2ccc(-c3ccc(Br)cc3)cc2)c1OC(C)=O [I.v.019, [(1S)-1-[4-(4-bromophenyl)phenyl]ethyl] (2S)-2-[(3-acetoxy-4-methoxy-pyridine-2-carbonyl)amino] propanoate]
≥ 80%: pest or weed control at 200 ppm [2] | inhibition of growth at 200 ppm [3] | inhibition of growth at 200 ppm [4] | pest or weed control at 200 ppm [5] | inhibition of growth at 200 ppm [6]

COc1ccnc(C(=O)N[C@@H](C)C(=O)O[C@@H](C)c2ccc(-c3ccc(C(F)(F)F)cc3)cc2)c1O [I.x.001, [(1S)-1-[4-[4-(trifluoromethyl)phenyl]phenyl]ethyl] (2S)-2-[(3-hydroxy-4-methoxy-pyridine-2-carbonyl)amino] propanoate]
≥ 80%: inhibition of growth at 200 ppm [7] | inhibition of growth at 200 ppm [1] | inhibition of growth at 200 ppm [3] | inhibition of growth at 200 ppm [4] | pest or weed control at 200 ppm [5] | inhibition of growth at 200 ppm [6]
